Literature values in US20170051350A1, “METHOD AND SYSTEM TO PREDICT RESPONSE TO TREATMENTS FOR MENTAL DISORDERS” (Pathway Genomics Corporation, priority 2013, published 2017).
Like-named read-outs stand apart in the source and are kept apart here.

What was measured:
[1] = tested on: CYP2D6; details: cited from earlier work
[2] = biological target: T1, HTR2C (Homo sapiens, UniProt P28335); details: HTR2C rs3813929 T/C, T (outcome: reduced weight gain); cited from earlier work
T1 construct: endogenous in cells; host or cells: patients (in vivo)
T1 sequence (P28335 33-458): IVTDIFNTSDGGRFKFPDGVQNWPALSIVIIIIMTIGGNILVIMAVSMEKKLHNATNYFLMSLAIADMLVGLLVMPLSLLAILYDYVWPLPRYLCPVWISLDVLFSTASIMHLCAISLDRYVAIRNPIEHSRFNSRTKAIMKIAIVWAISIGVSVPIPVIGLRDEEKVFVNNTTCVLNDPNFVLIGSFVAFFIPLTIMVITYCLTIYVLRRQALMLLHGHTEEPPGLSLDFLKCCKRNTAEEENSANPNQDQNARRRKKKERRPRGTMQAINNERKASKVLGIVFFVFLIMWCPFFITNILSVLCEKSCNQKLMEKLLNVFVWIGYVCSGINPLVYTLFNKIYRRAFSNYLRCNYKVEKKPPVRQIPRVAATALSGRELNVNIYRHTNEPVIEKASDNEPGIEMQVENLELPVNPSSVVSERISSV

[3] = tested on: genes affecting efficacy; details: cited from earlier work; for depression improvement (Category): BDNF rs61888800, full wording: Depression may improve more than average, source PMID 20435227 Suppl Table 3a
[4] = tested on: genes affecting adverse reactions; details: source PMID 20435227 Suppl Table 3c, cited from earlier work
[5] = tested on: HLA genotypes; details: cited from earlier work
[6] = CYP2D6 Intermediate Metabolizer

## CN(C)CCC=C1c2ccccc2CCc2ccccc21 [Amitriptyline]
[1]; [6]
  plasma concentrations (drug, or drug combined with its active metabolite): may have increased
  risk of adverse effects: increased risk
[1]; CYP2D6 Poor Metabolizer
  plasma concentrations (drug, or drug combined with its active metabolite): increased plasma
  risk of adverse effects: increased risk

## CN1CC2c3ccccc3Oc3ccc(Cl)cc3C2C1 (stereo not drawn) [Asenapine]
[2]
  risk of weight gain: Patient has decreased risk of weight gain if treated with atypical antipsychotics, including asenapine (PMID 19636338,

## CNCCCN1c2ccccc2CCc2ccccc21 [Desipramine]
[1]; [6]
  plasma concentrations (drug, or drug combined with its active metabolite): Patient may have increased plasma concentrations of desipramine at standard doses (PMID 9049581, PMID 3816019,
[1]; CYP2D6 Poor Metabolizer
  plasma concentrations (drug, or drug combined with its active metabolite): Patient's genotype is associated with increased plasma concentrations of desipramine at standard doses (PMID
  risk of adverse effects: 9049581, PMID 3816019, PMID 10895986), which may increase risk of adverse effects.
[3]
  depression improvement (Category): Depression may improve

## CN(C)CCC=C1c2ccccc2COc2ccccc21 [Doxepin]
[1]; [6]
  plasma concentrations (drug, or drug combined with its active metabolite): may have increased
  risk of adverse effects: may increase the risk
[1]; CYP2D6 Poor Metabolizer
  plasma concentrations (drug, or drug combined with its active metabolite): increased
  risk of adverse effects: may increase the risk
[1]; CYP2D6 Ultrarapid Metabolizer
  plasma concentrations (drug, or drug combined with its active metabolite): Patient's genotype is associated with decreased plasma concentrations of doxepin. Consider alternative medications,

## CNCC[C@H](Oc1cccc2ccccc12)c1cccs1 [Duloxetine]
[1]; [6]
  plasma concentrations (drug, or drug combined with its active metabolite): Patient may have increased plasma concentrations of duloxetine at standard doses (PMID 17380590, 17713974).
[1]; CYP2D6 Poor Metabolizer
  plasma concentrations (drug, or drug combined with its active metabolite): Patient may have increased plasma concentrations of duloxetine at standard doses (PMID 17380590, 17713974).

## CNCCC(Oc1ccc(C(F)(F)F)cc1)c1ccccc1 (stereo not drawn) [Fluoxetine]
[3]
  depression improvement (Category): Depression may improve

## O=C(CCCN1CCC(O)(c2ccc(Cl)cc2)CC1)c1ccc(F)cc1 [Haloperidol]
[1]; [6]
  plasma concentrations (drug, or drug combined with its active metabolite): Patient may have increased plasma concentrations of haloperidol (PMID 12386646, 10519444, 10096261).
[1]; CYP2D6 Poor Metabolizer
  plasma concentrations of reduced haloperidol: fluphenazine, quetiapine, olanzapine or clozapine (PMID 21412232). Patient's genotype is associated with increased
  risk of adverse effects: Patient has increased risk of extrapyramidal symptoms and other adverse effects. Consider reducing the dose or
[1]; CYP2D6 Ultrarapid metabolizer, in one study
  risk of extrapyramidal symptoms: In one study, individuals with this patient's CYP2D6 metabolizer status had a slightly increased risk of extrapyramidal

## O=C1[C@@H]2[C@H]3CC[C@H](C3)[C@@H]2C(=O)N1C[C@@H]1CCCC[C@H]1CN1CCN(c2nsc3ccccc23)CC1 [Lurasidone]
[2]
  risk of weight gain: Patient has decreased risk of weight gain if treated with atypical antipsychotics, including lurasidone (PMID 19636338,

## CN1CCN2c3ncccc3Cc3ccccc3C2C1 (stereo not drawn) [Mirtazapine]
[1]; [6]
  plasma concentrations (drug, or drug combined with its active metabolite): Patient may have increased plasma concentrations of mirtazapine, though it is unclear if increased plasma
[1]; CYP2D6 Poor Metabolizer
  plasma concentrations (drug, or drug combined with its active metabolite): Patient may have increased plasma concentrations of mirtazapine at standard doses, though it is unclear if increased

## CNCCC=C1c2ccccc2CCc2ccccc21 [Nortriptyline]
[1]; [6]
  plasma concentrations (drug, or drug combined with its active metabolite): Patient's genotype is associated with increased plasma concentrations of nortriptyline at standard doses (PMID
[1]; CYP2D6 Poor Metabolizer
  plasma concentrations (drug, or drug combined with its active metabolite): Patient's genotype is associated with increased plasma concentrations of nortriptyline at standard doses (PMID
[1]; CYP2D6 Ultrarapid Metabolizer
  plasma concentrations (drug, or drug combined with its active metabolite): Patient's genotype is associated with decreased plasma concentrations of nortriptyline at standard doses (PMID
[3]; NR3C1 rs10482633, full wording: Depression may not respond as well, source PMID 20435227 Suppl Table 3b
  Escitalopram, Nortriptyline, response (Category): Depression may not respond

## Cc1cc2c(s1)Nc1ccccc1N=C2N1CCN(C)CC1 [Olanzapine]
[4]; ADRB3 rs4994, ADRB3:Trp64Arg
  Olanzapine, weight gain (Category): Less likely to gain weight
[4]; GNB3 rs5443, GNB3:825C > T
  Olanzapine, weight gain (Category): More likely to gain weight
[4]; HTR2A rs6313, HTR2A:T102C
  Olanzapine, weight gain (Category): More likely to gain weight
[4]; HTR2C rs6318, HTR2C:Cys23Ser
  Olanzapine, weight gain (Category): More likely to gain weight
[4]; HTR2C rs518147, HTR2C: −697G/C
  Olanzapine, weight gain (Category): Less likely to gain weight

## Cc1nc2n(c(=O)c1CCN1CCC(c3noc4cc(F)ccc34)CC1)CCCC2O (stereo not drawn) [Paliperidone]
[2]
  risk of weight gain: Patient has decreased risk of weight gain if treated with atypical antipsychotics, including paliperidone (PMID

## Fc1ccc([C@@H]2CCNC[C@H]2COc2ccc3c(c2)OCO3)cc1 [Paroxetine]
[1]; [6]
  risk of adverse effects: paroxetine, which may increase risk of sexual dysfunction (PMID 8880055, 12870705, 1531950).
[1]; CYP2D6 Poor Metabolizer
  risk of adverse effects: Patient may have increased risk of drug-drug interactions [PMID 16476833] and sexual dysfunction [PMID 12870705].

## OCCN1CCN(CCCN2c3ccccc3Sc3ccc(Cl)cc32)CC1 [Perphenazine]
[1]; [6]
  plasma concentrations (drug, or drug combined with its active metabolite): Patient's genotype is associated with increased plasma concentrations of perphenazine (PMID 17429316, 8612387),
[1]; CYP2D6 Poor Metabolizer
  plasma concentrations (drug, or drug combined with its active metabolite): Patient's genotype is associated with increased plasma concentrations of perphenazine (PMID 17429316, 8612387,
  risk of adverse effects: 8689810), which may increase risk of adverse effects (FDA approved perphenazine drug label, PMID 9333110,
[1]; CYP2D6 Ultrarapid Metabolizer
  plasma concentrations (drug, or drug combined with its active metabolite): Patient's genotype is associated with decreased plasma concentrations of perphenazine.

## OCCOCCN1CCN(C2=Nc3ccccc3Sc3ccccc32)CC1 [Quetiapine]
[2]
  risk of weight gain: Patient has decreased risk of weight gain if treated with atypical antipsychotics, including quetiapine (PMID 19636338,

## CC(CN(C)C)CN1c2ccccc2CCc2ccccc21 (stereo not drawn) [Trimipramine]
[1]; [6]
  plasma concentrations (drug, or drug combined with its active metabolite): Patient's genotype is associated with increased plasma concentrations of trimipramine and desmethyltrimipramine
[1]; CYP2D6 Poor Metabolizer
  plasma concentrations (drug, or drug combined with its active metabolite): Patient's genotype is associated with increased plasma concentrations of trimipramine and desmethyltrimipramine
  risk of adverse effects: patient may be at increased risk of adverse effects, such as sedation (PMID 14646691).
[1]; CYP2D6 Ultrarapid Metabolizer
  plasma concentrations (drug, or drug combined with its active metabolite): decreased
  risk of therapeutic failure: increased risk

## COc1ccc(C(CN(C)C)C2(O)CCCCC2)cc1 (stereo not drawn) [Venlafaxine]
[1]; [6]
  risk of adverse effects: 10233212, 10877013), which may increase risk of adverse effects (PMID 17803873). Consider alternative medications,
[1]; CYP2D6 Poor Metabolizer
  levels of the active metabolite, O-desmethylvenlafaxine, at standard doses: decreased
  risk of adverse effects: 18214456, 19593180, 21288052); therefore, the patient may have an increased risk of adverse effects at standard
[1]; CYP2D6 Ultrarapid Metabolizer
  plasma levels of the active metabolite, O-desmethylvenlafaxine, at standard doses: Patient's genotype is associated with increased plasma levels of the active metabolite, O-desmethylvenlafaxine, and

## O=C1Cc2cc(CCN3CCN(c4nsc5ccccc45)CC3)c(Cl)cc2N1 [Ziprasidone]
[2]
  risk of weight gain: Patient has decreased risk of weight gain if treated with atypical antipsychotics, including ziprasidone (PMID

## OCCN1CCN(CC/C=C2/c3ccccc3Sc3ccc(Cl)cc32)CC1 [Zuclopenthixol]
[1]; [6]
  plasma concentrations (drug, or drug combined with its active metabolite): Patient may have increased plasma concentrations of zuclopenthixol (PMID 1927573, 8946657, 12107620, 8612387,
  risk of adverse effects: 20946203), which may increase risk of adverse effects (PMID 20175668, 12107620). Consider reducing the dose by
[1]; CYP2D6 Poor Metabolizer
  plasma concentrations (drug, or drug combined with its active metabolite): Patient's genotype is associated with increased plasma concentrations of zuclopenthixol (PMID 1927573, 8946657,
  risk of adverse effects: 12107620, 8612387, 20946203), which may increase risk of adverse effects (PMID 20175668, 12107620). Consider

## Nc1nc(NC2CC2)c2ncn([C@H]3C=C[C@@H](CO)C3)c2n1 [abacavir]
[5]; HLA-B*5701
  hypersensitivity: associated

## Oc1ncnc2[nH]ncc12 [allopurinol]
[5]; HLA-Aw33, B17/Bw58
  drug eruption: associated
[5]; HLA-B*5801
  severe cutaneous adverse reactions: associated

## Cc1c(N(C)CS(=O)(=O)[O-])c(=O)n(-c2ccccc2)n1C.[Na+] [dipyrone]
[5]; HLA-A24, B7, DQwI
  agranulocytosis: associated

## NNc1nncc2ccccc12 [hydralazine]
[5]; HLA-DR4
  SLE: associated

## c1ccc([C@H]2CN3CCSC3=N2)cc1 [levamisole]
[5]; HLA-B27
  agranulocytosis: associated

## CC(=O)/N=c1/sc(S(N)(=O)=O)nn1C [methazolamide]
[5]; HLA-B59
  SJS: associated

## CC(C)(S)[C@@H](N)C(=O)O [penicillamine]
[5]; HLA-DR3
  toxicity: associated
